We go through eleven compounds from ChEMBL document CHEMBL1201862, “PubChem BioAssay data set” (2004).

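Following 48 hours of exposure in 96-well plates, responses at five concentrations were used to interpolate endpoints linearly. Here, GI50 denotes the concentration required for 50% inhibition of growth.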 Active and inactive are the calls of the source. Cut-off read from the data, not from the text of the source: active = GI50 up to about 1.1 µM and inactive = higher. A value given as a limit tells only on which side of the number the result lay.

Some test systems named below: MDA-N; K562; MDA-MB-435; SF-539; HL-60; COLO 205; HOP-92; MCF7; ACHN; EKVX; MOLT-4; HOP-62; SF-295; SNB-19; OVCAR-5; NCI-H460; A498; KM12; CCRF-CEM; NCI-H226.
Holding throughout (experiment): NCI anticancer screen, dose series, 48 h

Turning to `CC(=O)OCC1OC(N2C(=O)/C(=C\c3ccc(Cl)cc3)C(N)=Nc3ccccc32)C(OC(C)=O)C(OC(C)=O)C1OC(C)=O` (configuration not stated), the GI50 in the assay on MDA-N is 17.6 µM (inactive); in the assay with K562, 12.5 µM (inactive); with MDA-MB-435, 16 µM (inactive); with SF-539, 10.1 µM (inactive); in the assay on HL-60, 33 µM (inactive); in the assay with COLO 205 it was 12.1 µM (inactive). For the same compound, the GI50 was 17.2 µM (inactive) with HOP-92; 11.8 µM (inactive) with MCF7; 20.2 µM (inactive) with ACHN; 29.2 µM (inactive) in the assay on EKVX; 6.43 µM (inactive) with MOLT-4; 29.2 µM (inactive) in the assay with HOP-62. Moreover, the GI50 in the assay with SF-295 is 38.8 µM (inactive); in the assay with SNB-19, 37.8 µM (inactive); in the assay on OVCAR-5 it was 33.4 µM (inactive); with NCI-H460, 28.4 µM (inactive); with A498, 44.6 µM (inactive); with KM12 it was 14.9 µM (inactive).
Consider `OCC1NCC(O)C(O)C1O` (configuration not stated), for which the GI50 with MDA-N, in the assay with MDA-MB-435, with SF-539, in the assay on HL-60, in the assay on CCRF-CEM and with COLO 205 was > 100 µM (inactive) each time. Also, the GI50 in the assay on HOP-92, with MCF7, with ACHN, with EKVX, with MOLT-4 and in the assay with HOP-62 was > 100 µM (inactive) each time. Also, the GI50 in the assay with SF-295 is > 10 µM (inactive); in the assay with SNB-19, > 100 µM (inactive); in the assay with OVCAR-5, > 100 µM (inactive); in the assay on NCI-H460, > 100 µM (inactive); in the assay on A498, > 100 µM (inactive); in the assay with KM12, > 100 µM (inactive).
For the compound `COc1cc(NCC2COc3c(ccc(OC)c3OC)C2=O)c([N+](=O)[O-])cc1OC` (configuration not stated), the GI50 in the assay on MDA-N was > 100 µM (inactive); in the assay on K562, 31 µM (inactive); with MDA-MB-435 it was > 100 µM (inactive); in the assay on SF-539 it was > 100 µM (inactive); with HL-60, 36.8 µM (inactive); in the assay with CCRF-CEM, 53.2 µM (inactive). Also, the GI50 is 54.7 µM (inactive) with COLO 205; 39.3 µM (inactive) with MCF7; > 100 µM (inactive) in the assay on ACHN; 95.1 µM (inactive) with EKVX; 16.4 µM (inactive) in the assay on MOLT-4; > 100 µM (inactive) with HOP-62. In addition, the GI50 in the assay with SF-295 was 66.1 µM (inactive); in the assay on SNB-19 it was > 100 µM (inactive); with OVCAR-5, > 100 µM (inactive); in the assay on NCI-H460, 35.2 µM (inactive); in the assay on A498 it was > 100 µM (inactive); in the assay with KM12, > 100 µM (inactive). In addition, the GI50 in the assay on NCI-H226 is > 100 µM (inactive).
Turning to `CC(C)(C)C1CCC(=O)/C(=C/CC2CC(=O)N(c3ccccc3)C(=O)C2)C1` (configuration not stated), the GI50 in the assay on MDA-N was 22.6 µM (inactive); in the assay with K562, 19.5 µM (inactive); in the assay with MDA-MB-435, 23.8 µM (inactive); with HL-60, 26.8 µM (inactive); in the assay with COLO 205 it was 20.8 µM (inactive); with MCF7 it was 19.3 µM (inactive). The GI50 in the assay on ACHN was 19.9 µM (inactive); in the assay on EKVX it was 26 µM (inactive); with MOLT-4, 34.1 µM (inactive); with HOP-62 it was 30.2 µM (inactive); with SF-295, 47.8 µM (inactive); in the assay on SNB-19, 22 µM (inactive). Also, the GI50 with OVCAR-5 is 17.4 µM (inactive); in the assay on NCI-H460, 16.6 µM (inactive); with A498, 24.5 µM (inactive); in the assay with KM12, 18.5 µM (inactive); with NCI-H226, 16.1 µM (inactive).
Turning to `COCCN1C(=O)C2c3[nH]c4ccccc4c3C3CCC(C(C)(C)C)CC3C2C1=O` (configuration not stated), the GI50 is 14.5 µM (inactive) in the assay on MDA-N; 18.9 µM (inactive) in the assay with K562; 18.7 µM (inactive) in the assay with MDA-MB-435; 19.1 µM (inactive) in the assay with SF-539; 16 µM (inactive) with HL-60; 22.6 µM (inactive) in the assay with CCRF-CEM. Further, the GI50 with COLO 205 is 18.2 µM (inactive); with MCF7 it was 18.4 µM (inactive); in the assay with ACHN, > 10 µM (inactive); with EKVX, 17.9 µM (inactive); with MOLT-4, > 10 µM (inactive); with HOP-62 it was 18.6 µM (inactive). Besides, the GI50 was 18.6 µM (inactive) in the assay on SF-295; 19.1 µM (inactive) in the assay on SNB-19; 14.8 µM (inactive) with NCI-H460; 19.2 µM (inactive) in the assay with KM12; 22.1 µM (inactive) in the assay on NCI-H226.
As for `O=C(/C=C1\N=C(c2ccccc2)N(c2nc3c(Cl)cc(Cl)cc3s2)C1=O)/C=C/c1ccccc1`, the GI50 with MDA-N was 45.8 µM (inactive); in the assay with K562 it was 35 µM (inactive); in the assay with MDA-MB-435, 54.3 µM (inactive); with HL-60, 91 µM (inactive); in the assay with CCRF-CEM, 46.7 µM (inactive); in the assay with COLO 205 it was 47.6 µM (inactive). The GI50 in the assay on HOP-92 was > 100 µM (inactive); in the assay with MCF7, 63 µM (inactive); with ACHN, > 100 µM (inactive); in the assay on EKVX, > 100 µM (inactive); in the assay on MOLT-4, 52.1 µM (inactive); in the assay on HOP-62, > 100 µM (inactive). Moreover, the GI50 in the assay with SF-295 is > 100 µM (inactive); in the assay on SNB-19 it was > 100 µM (inactive); in the assay on OVCAR-5, > 100 µM (inactive); in the assay with NCI-H460 it was > 100 µM (inactive); in the assay with A498, 67.5 µM (inactive); with KM12, > 100 µM (inactive).
For the compound `O=C(O)CC(C(=O)O)C1c2ccccc2-c2ccccc21` (configuration not stated), the GI50 is > 100 µM (inactive) in the assay on MDA-N; > 100 µM (inactive) in the assay with K562; 77.1 µM (inactive) in the assay with MDA-MB-435; > 100 µM (inactive) with HL-60; 32.4 µM (inactive) in the assay on CCRF-CEM; 81.8 µM (inactive) in the assay with COLO 205. The GI50 in the assay on MCF7 is 34.2 µM (inactive); with ACHN, 92.9 µM (inactive); in the assay with EKVX, > 100 µM (inactive); in the assay on MOLT-4 it was 48.2 µM (inactive); in the assay on HOP-62 it was 38.2 µM (inactive); with SF-295, 45.1 µM (inactive). In addition, the GI50 in the assay on SNB-19 is 34 µM (inactive); in the assay with NCI-H460, 33.6 µM (inactive); in the assay with A498 it was > 100 µM (inactive); in the assay on KM12, 66.8 µM (inactive); in the assay on NCI-H226 it was > 100 µM (inactive).
`C=C[C@@H]1C[C@]2(C(=O)OC)Cc3nc4ccccc4nc3CC(C(=O)OC)=C2O1`: the GI50 in the assay on MDA-N was 46.8 µM (inactive); with MDA-MB-435, 47.8 µM (inactive); with SF-539, > 100 µM (inactive); in the assay on HL-60, 80.5 µM (inactive); in the assay on CCRF-CEM, 41.8 µM (inactive); with COLO 205, 35.2 µM (inactive). The GI50 with MCF7 was 40.6 µM (inactive); in the assay on ACHN it was > 100 µM (inactive); in the assay with EKVX it was > 100 µM (inactive); in the assay with MOLT-4 it was 42.5 µM (inactive); in the assay with HOP-62, > 100 µM (inactive); with SF-295, 93.5 µM (inactive). For the same compound, the GI50 in the assay on SNB-19 was > 100 µM (inactive); in the assay on OVCAR-5, > 100 µM (inactive); with NCI-H460, > 100 µM (inactive); in the assay with A498, > 100 µM (inactive); with KM12, 75.5 µM (inactive).
As to `CC(C)NC(=O)OCC[S+]([O-])c1c(Cl)c(Cl)nn1C` (configuration not stated), the GI50 in the assay with MDA-N was 38.7 µM (inactive); in the assay with K562 it was 34 µM (inactive); in the assay on MDA-MB-435, 22.3 µM (inactive); with SF-539 it was > 100 µM (inactive); in the assay on HL-60, 47.5 µM (inactive); in the assay with CCRF-CEM, 27.5 µM (inactive). The GI50 with COLO 205 is 21.2 µM (inactive); in the assay with MCF7 it was 29.4 µM (inactive); with ACHN, 46.1 µM (inactive); with EKVX, > 100 µM (inactive); with MOLT-4, 34.8 µM (inactive); with HOP-62, 69.3 µM (inactive). The GI50 in the assay with SF-295 was > 100 µM (inactive); with SNB-19, > 100 µM (inactive); in the assay on OVCAR-5, 49 µM (inactive); in the assay on NCI-H460 it was > 100 µM (inactive); in the assay on A498, > 100 µM (inactive); in the assay with KM12 it was > 100 µM (inactive). Besides, the GI50 in the assay with NCI-H226 is > 100 µM (inactive).
As to `CC1(C)CC[C@]2(C(=O)O)CC[C@]3(C)C(=CCC4=C5C[C@H](O)[C@H](O)[C@@](C)(CO)[C@@]5(C)CC[C@]43C)[C@@H]2C1`, the GI50 in the assay on MDA-N is 47.4 µM (inactive); in the assay with K562, 62.8 µM (inactive); with MDA-MB-435, 62.1 µM (inactive); in the assay on SF-539, 56.9 µM (inactive); in the assay on HL-60 it was 6.05 µM (inactive); in the assay with CCRF-CEM it was 0.944 µM (active). Also, the GI50 in the assay on COLO 205 is 15.2 µM (inactive); in the assay on HOP-92, > 100 µM (inactive); in the assay on MCF7, 44.6 µM (inactive); in the assay with ACHN, > 100 µM (inactive); in the assay with EKVX it was 51.5 µM (inactive); with MOLT-4, 47.3 µM (inactive). Also, the GI50 with HOP-62 was > 100 µM (inactive); with SF-295, 33.7 µM (inactive); in the assay with SNB-19 it was 16 µM (inactive); in the assay on OVCAR-5 it was > 100 µM (inactive); in the assay on NCI-H460, 30.4 µM (inactive); in the assay with A498 it was 17.8 µM (inactive). The GI50 in the assay with KM12 was 38.9 µM (inactive).
For the compound `OCC1OC(NC(=S)NCSCCC(F)(F)C(F)(F)C(F)(F)C(F)(F)C(F)(F)C(F)(F)F)C(O)C(O)C1O` (configuration not stated), the GI50 in the assay on MDA-N is 43.6 µM (inactive); with K562, 19.9 µM (inactive); in the assay with MDA-MB-435, 16.4 µM (inactive); with SF-539, 16.6 µM (inactive); in the assay on HL-60, 49.4 µM (inactive); in the assay with CCRF-CEM, 23.3 µM (inactive). The GI50 in the assay on COLO 205 was 77.4 µM (inactive); in the assay with HOP-92, 22.7 µM (inactive); in the assay on MCF7 it was 40.8 µM (inactive); in the assay with ACHN, 35.2 µM (inactive); with MOLT-4, 21.5 µM (inactive); with HOP-62, 32.4 µM (inactive). For the same compound, the GI50 in the assay with SF-295 is 23.1 µM (inactive); with SNB-19 it was 36.6 µM (inactive); in the assay on OVCAR-5, 56.1 µM (inactive); in the assay on NCI-H460 it was 34 µM (inactive); in the assay with A498, 1.77 µM (inactive); with KM12 it was 38.7 µM (inactive).
